# Data as given in patent US6548241B1, “Storage solution containing photosensitizer for inactivation of biological contaminants” (Gambro, Inc., priority 2000, dated 2003).
# Like-named read-outs stand apart in the source and are kept apart here.
# Experiments:
# [1] = test system: herpes simplex virus type II (HSV-II); assay: Inactivation of HSV-II in platelet concentrates at varying photosensitizer concentrations; details: platelet concentrate, 80 J/cm^2, all three trials
# [2] = format: physicochemical; details: for solubility thermodynamic at 1 h: thermodynamic from solid
# Procedure: The mixture was agitated at room temperature for one hour and vortex mixed to ensure complete dissolution of the suspended material. […] This suspension was then centrifuged to remove undissolved material. The supernatant from this preparation was removed and analyzed using a spectrophotometer. The absorbance values of the solution were determined at 447 nm and 373 nm. From the extinction coefficients that were determined previously, it was possible to estimate the concentration of the saturated solution Solubility in ACD-A Anticoagulant The same procedure described above was repeated using ACD-A Anticoagulant.
# [3] = test system: HSV-II; assay: Inactivation of HSV-II in platelet concentrate and PC:media with ascorbate (log virus titre); details: 14 μM + 6 mM ascorbate
# [4] = test system: Staphylococcus aureus; assay: Log inactivation of S. aureus in platelet concentrate, irradiation at 80 J/cm^2
# [5] = test system: Staphylococcus epidermidis; assay: Log inactivation of S. epidermidis in platelet concentrate, irradiation at 80 J/cm^2
# [6] = Photodecomposition in ACD-A upon exposure to UV light (365 nm); details: for % of Initial, 373 nm / % of Initial, 447 nm: 63 μg/mL in ACD-A, UV 365 nm
# [7] = test system: Listeria monocytogenes; assay: Log inactivation of Listeria monocytogenes in platelet concentrate, cuvette apparatus; format: cell-based
# Procedure: Mixtures of platelet concentrates and platelet additive solutions are referred to herein as in “media.” Platelet concentrate without additive solution is referred to herein as in “plasma.” Both were spiked with Listeria monocytogenes. Vitamin K5 was then added to each in the amount of 300 μg/mL […]. Each was then exposed to UV, visible or room light in the cuvette apparatus of FIG. 5 with the results shown in Table 3.
compound,measurement,setting,value
"Cc1cc2nc3c(=O)[nH]c(=O)nc-3n(C[C@H](O)[C@H](O)[C@H](O)CO)c2cc1C [7,8-dimethyl-10-ribityl isoalloxazine]",inactivation of HSV-II,[1],complete inactivation
same,solubility thermodynamic at 1 h,"[2]; ACD-A Anticoagulant, aqueous buffer, ACD-A Anticoagulant, absorbance at 373 nm, read-out: Concentration (373) of saturated solution",63 µg/mL
same,solubility thermodynamic at 1 h,"[2]; ACD-A Anticoagulant, aqueous buffer, ACD-A Anticoagulant, absorbance at 447 nm, read-out: Concentration (447) of saturated solution",60.3 µg/mL
same,Concentration (373) of saturated solution,"[2]; ACD-A Anticoagulant, absorbance at 373 nm",166 µM
same,Concentration (447) of saturated solution,"[2]; ACD-A Anticoagulant, absorbance at 447 nm",160 µM
same,solubility thermodynamic at 1 h,"[2]; Isolyte S media, pH 7.4, saline or isotonic, Isolyte S, pH 7.4 media, room temperature, absorbance at 373 nm, read-out: Concentration (373) of saturated solution",42 µg/mL
same,solubility thermodynamic at 1 h,"[2]; Isolyte S media, pH 7.4, saline or isotonic, Isolyte S, pH 7.4 media, room temperature, absorbance at 447 nm, read-out: Concentration (447) of saturated solution",40.9 µg/mL
same,Concentration (373) of saturated solution,"[2]; Isolyte S, pH 7.4 media, room temperature, absorbance at 373 nm",110 µM
same,Concentration (447) of saturated solution,"[2]; Isolyte S, pH 7.4 media, room temperature, absorbance at 447 nm",109 µM
same,log virus titre,"[3]; 30:70 PC:Media (PASIII), UV+VIS 0 J/cm^2, 0.0 Minutes",5.6
same,log virus titre,"[3]; 30:70 PC:Media, UV+VIS 5 J/cm^2, 1.5 Minutes",2.5
same,log virus titre,"[3]; 30:70 PC:Media, UV+VIS 10 J/cm^2, 3.0 Minutes",2.5
same,log virus titre,"[3]; 30:70 PC:Media, UV+VIS 15 J/cm^2, 4.5 Minutes",2.3
same,log virus titre,"[3]; 30:70 PC:Media, UV+VIS 20 J/cm^2, 6.0 Minutes",1.8
same,log virus titre,"[3]; 30:70 PC:Media, UV+VIS 30 J/cm^2, 9.0 Minutes",1.6
same,log virus titre,"[3]; 90:10 PC:Media, UV+VIS 0 J/cm^2",5.6
same,log virus titre,"[3]; 90:10 PC:Media, UV+VIS 40 J/cm^2",3.3
same,Log Inactivation (cfu/mL),[4]; 10 μM in platelet concentrate,1.9 Logs
same,Log Inactivation (cfu/mL),[5]; 10 μM in platelet concentrate,4.1 Logs
same,"% of Initial, 373 nm",[6]; Irradiation Time 0,100%
same,"% of Initial, 447 nm",[6]; Irradiation Time 0,100%
same,"% of Initial, 373 nm",[6]; Irradiation Time 5,87.3%
same,"% of Initial, 447 nm",[6]; Irradiation Time 5,61.6%
same,"% of Initial, 373 nm",[6]; Irradiation Time 10,90.5%
same,"% of Initial, 447 nm",[6]; Irradiation Time 10,76.6%
same,"% of Initial, 373 nm",[6]; Irradiation Time 15,100%
same,"% of Initial, 447 nm",[6]; Irradiation Time 15,70%
same,decomposition of the reagent (absorption profile at 373 nm),[6]; over the entire irradiation period,no significant decomposition
Cc1cc2nc3c(=O)[nH]c(=O)nc-3n(C[C@H](O)[C@H](O)[C@H](O)COP(=O)(O)O)c2cc1C [alloxazine mononucleotide],Log Inactivation (cfu/mL),[4]; 10 μM in platelet concentrate,1.6 Logs
same,Log Inactivation (cfu/mL),[5]; 10 μM in platelet concentrate,5.6 Logs
Cc1cc2nc3[nH]c(=O)[nH]c(=O)c3nc2cc1C [7-8-dimethyl alloxazine],Log Inactivation (cfu/mL),[4]; 7 μM in platelet concentrate,1.6 Logs
same,Log Inactivation (cfu/mL),[5]; 7 μM in platelet concentrate,2.9 Logs
"Cc1cc(N)c2ccccc2c1O [K5, Vitamin K5]",Log Inactivation (cfu/mL),"[7]; K5 300 μg/mL in Media (20:80 platelet concentrate:Isolyte S), UV 365 nm, 40 J/cm^2",4.2 Logs
same,Log Inactivation (cfu/mL),"[7]; K5 300 μg/mL in Media, Room Light",0 Logs
same,Log Inactivation (cfu/mL),"[7]; K5 300 μg/mL in Media, VIS 419 nm, 40 J/cm^2",4.2 Logs
same,Log Inactivation (cfu/mL),"[7]; K5 300 μg/mL in Plasma (platelet concentrate without additive solution), UV 365 nm, 40 J/cm^2",0.1 Logs
same,Log Inactivation (cfu/mL),"[7]; K5 300 μg/mL in Plasma, Room Light",0 Logs
same,Log Inactivation (cfu/mL),"[7]; K5 300 μg/mL in Plasma, VIS 419 nm, 40 J/cm^2",0.1 Logs
